The record followed here is patent US20220340665A1, “INHIBITOR AGAINST EXPRESSION OF IMMUNE CHECKPOINT MOLECULE” (RENASCIENCE INC., priority 2019, published 2022).

The assay has as its target human PAI-1 (Homo sapiens, UniProt P05121). Put plainly: PAI-1 inhibitory activity, t-PA with Spectrozyme t-PA chromogenic substrate (Reference Experimental Example 2). It is filed as biochemical. Also noted: purchased Molecular Innovations, Inc. (USA). As for the experimental part:
Subsequently, human-derived tissue plasminogen activator (t-PA) (manufactured by American Diagnostica, Inc. (USA); the same applies hereinafter) adjusted to 0.05 pmol/μL was added thereto, and the mixture was further incubated at 37° C. for 60 minutes. Then, 0.25 mM of Spectrozyme t-PA synthetic substrate (manufactured by American Diagnostica, Inc. (USA); the same applies hereinafter), which is a chromogenic substrate, was added. […]
Free p-nitroaniline removed from the chromogenic substrate (Spectrozyme t-PA) by t-PA action was measured using a spectrophotometer at an absorbance of 405 nm at 20-minute intervals, for 120 minutes.

The mark [1] stands for this setting: Tables 5 to 7, first value column, head prints no concentration.
Setting [2] is: Tables 5 to 7, second value column, head prints no concentration.
Setting [3] is: compound 10 μm (head), system without compound after 120 minutes = 100%.
The mark [4] stands for this setting: compound 25 μm (head), system without compound after 120 minutes = 100%.

Sequence of human PAI-1 (P05121 24-402): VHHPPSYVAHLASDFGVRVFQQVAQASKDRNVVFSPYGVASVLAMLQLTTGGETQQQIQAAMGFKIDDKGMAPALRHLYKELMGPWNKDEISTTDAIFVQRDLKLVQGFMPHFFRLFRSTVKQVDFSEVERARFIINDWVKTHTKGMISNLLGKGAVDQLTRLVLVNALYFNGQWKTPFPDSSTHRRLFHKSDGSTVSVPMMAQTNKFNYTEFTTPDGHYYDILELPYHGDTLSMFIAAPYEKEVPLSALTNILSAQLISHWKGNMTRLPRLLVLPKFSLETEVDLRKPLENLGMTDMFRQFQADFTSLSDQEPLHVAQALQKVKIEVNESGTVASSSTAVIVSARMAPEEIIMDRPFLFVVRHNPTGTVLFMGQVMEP

Consider “2-((biphenyl-4-ylcarbonoyl)amino)-5-chlorobenzoic acid [Example 71]”, for which the PAI-1 activity % worked out at 2.1% under setting [1] and 39.6% under setting [2]. With “5-chloro-2-((3-(3-(furan-3-yl)phenyl)propenoyl)amino)benzoic acid [Example 36]”, the PAI-1 activity % is, setting by setting: under setting [3], 3.7%; under setting [4], 95.7%. On the same counts, the results for “5-chloro-2-(((3-(cyclohex-1-en-1yl)phenyl)acetyl)amino)benzoic acid [Example 25]” are 0.0% and 85.8%. As to “5-chloro-2-(((4-(methylcyclohexyl)phenyl)carbonyl)amino)benzoic acid [Example 98]”, the PAI-1 activity % came out at 0.1% under setting [1] and 41.5% under setting [2]. In the case of `O=C(Nc1ccc(Cl)cc1C(=O)[O-])c1cccc(-c2ccncc2)c1.[Na+]` [Example 8, 5-chloro-2-(((3-(pyridin-4-yl)phenyl)carbonyl)amino)sodium benzoate], the PAI-1 activity % was found to be 28.5% under setting [3] and 100.3% under setting [4].

With `CC(C)(C)c1cccc(OCC(=O)Nc2ccc(Cl)cc2C(=O)O)c1` [Example 16, 2-(((3-tert-butylphenoxy)acetyl)amino)-5-chlorobenzioc acid], the PAI-1 activity % is recorded as 21.9% under setting [3] and 77.4% under setting [4].

Turning to `CC(C)(C)c1cccc(OCC(=O)Nc2ccc(Cl)cc2C(=O)O)c1` [Example 18, 2-(((3-tert-butylphenoxy)acetyl)amino)-5-chlorobenzoic acid], the PAI-1 activity % under setting [3] is listed as 16.1% and the PAI-1 activity % under setting [4] was found to be 81.4%. The matching figures for `O=C(COc1ccc(C23CC4CC(CC(C4)C2)C3)cc1)Nc1ccc(Cl)cc1C(=O)O` [Example 21]: 0.3% and 10.0%. The matching figures for `Cn1c(C(=O)Nc2ccc(Cl)cc2C(=O)O)cc2cc(Br)ccc21` [Example 23]: 1.8% and 97.3%. On the same counts, the results for `O=C(COc1cccc(C23CC4CC(CC(C4)C2)C3)c1)Nc1ccc(Cl)cc1C(=O)O` [Example 30] are 1.3% and 19.3%. In the case of `O=C(O)c1cc(Cl)ccc1NC(=O)C1CCCN(C(=O)c2cccc(-c3ccccc3)c2)C1` (stereo not drawn) [Example 31, 2-(((1-(biphenyl-3-ylcarbonyl)pipendin-3-yl)carbonyl)amino)-5-chlorobenzoic acid], the PAI-1 activity % runs as follows: under setting [3], 20.2%; under setting [4], 88.0%. The matching figures for `O=C(Nc1ccc(Cl)cc1C(=O)O)c1ccc(C2=CCOCC2)cc1` [Example 32, 5-chloro-2-(((4'-(3,6-dihydro-2H-pyran-4-yl)phenyl)carbonyl)amino)benzoic acid]: 1.7% and 94.4%. On to `O=C(Nc1ccc(Cl)cc1C(=O)O)c1ccc(C2=CCOCC2)cc1` [Example 34, 5-chloro-2-(((4-(3,6-dihyrdo-2H-pyran-4-yl)phenyl)carbonyl)amino)benzoic acid], for which the PAI-1 activity % reads like this: under setting [3], 45.1%; under setting [4], 97.1%.

`O=C(O)c1cc(Cl)ccc1NC(=O)C1(c2cccc(-c3ccoc3)c2)CC1` [Example 35, 5-chloro-2-(((1-(3-(furan-3-yl)phenyl)cyclopropyl)carbonyl)amino)benzoic acid]: under setting [4], the PAI-1 activity % worked out at 96.8%.

For the compound `O=C(O)c1cc(Cl)ccc1NC(=O)c1cccc2c1Cc1ccccc1-2` [Example 38, 5-chloro-2-((9H-fluoren-1-ylcarbonyl)amino)benzoic acid], under setting [4], the PAI-1 activity % is recorded as 94.6%. `CC(C)(Oc1cccc(-c2ccoc2)c1)C(=O)Nc1ccc(Cl)cc1C(=O)O` [Example 44, 5-chloro-2-((2-(3-(furan-3-yl)phenoxy)-2-methylpropenoyl)amino)benzoic acid]: the PAI-1 activity % by setting is: under setting [3], 20.4%; under setting [4], 97.6%. The matching figures for `O=C(COc1ccccc1-c1ccccc1)Nc1ccc(-c2ccoc2)cc1C(=O)O` [Example 46, 2-(((biphenyl-2-yloxy)acetyl)amino)-5-(furan-3-yl)benzoic acid]: 0.4% and 69.9%. On the same counts, the results for `O=C(Nc1ccc(Cl)cc1C(=O)O)c1ccc(C(=O)C23CC4CC(CC(C4)C2)C3)cc1` [Example 56] are 0.7% and 75.8%.

Consider `O=C(Nc1ccc(Cl)cc1C(=O)O)C(=O)c1c[nH]c2ccc(OCc3ccccc3)cc12` [Example 57, 2-(((5-(benzyloxy)-1H-indol-3-yl)(oxo)acetyl)amino)-5-chlorobenzoic acid], for which the PAI-1 activity % under setting [4] amounted to 36.6%. With `O=C(Nc1ccc(Cl)cc1C(=O)O)c1cccc(-c2cccc3ccccc23)c1` [Example 58, 5-chloro-2-(((3-(naphthalen-1-yl)phenyl)carbonyl)amino)benzoic acid], the PAI-1 activity % worked out at 0.0% under setting [3] and 0.0% under setting [4].

On to `COc1ccccc1-c1cccc(OCC(=O)Nc2ccc(Cl)cc2C(=O)O)c1` [Example 61, 5-chloro-2-((((2'-methoxybiphenyl-3-yl)oxy)acetyl)amino)benzoic acid], for which the PAI-1 activity % under setting [3] was determined as 36.9%. As to `O=C(Nc1ccc(Cl)cc1C(=O)[O-])c1cccc(-c2cnc3ccccc3c2)c1.[Na+]` [Example 63, 5-chloro-2-(((3-(quinolin-3-yl)phenyl)carbonyl)amino)sodium benzoate], the PAI-1 activity % is reported as 0.3% under setting [3] and 21.3% under setting [4].

In the case of `O=C(Nc1ccc(Cl)cc1C(=O)[O-])c1cccc(-c2cncc3ccccc23)c1.[Na+]` [Example 64, 5-chloro-2-(((3-(isoquinolin-4-yl)phenyl)carbonyl)amino)sodium benzoate], the PAI-1 activity % by setting is: under setting [3], 0.7%; under setting [4], 74.3%.

As for `O=C(Nc1ccc(Cl)cc1C(=O)[O-])c1cccc(-c2cccc3ncccc23)c1.[Na+]` [Example 65, 5-chloro-2-(((3-(quinolin-50yl)phenyl)carbonyl)amino)sodium benzoate], the PAI-1 activity % is, setting by setting: under setting [3], 0.4%; under setting [4], 71.7%.

Turning to `O=C(Nc1ccc(Cl)cc1C(=O)[O-])c1cccc(-c2cccc3cnccc23)c1.[Na+]` [Example 66], the PAI-1 activity % was found to be 0.1% under setting [3] and 22.6% under setting [4].

On to `O=C(Nc1ccc(Cl)cc1C(=O)[O-])c1ccc(-c2cccc3cccnc23)cc1.[Na+]` [Example 67, 5-chloro-2-(((4-(quinolin-8-yl)phenyl)carbonyl)amino)sodium benzoate], for which the PAI-1 activity % under setting [3] was 0.6% and the PAI-1 activity % under setting [4] worked out at 90.4%.

For `Cl.O=C(O)c1cc(Cl)ccc1NC(=O)N1CCN(C(c2ccccc2)c2ccccc2)CC1` [Example 75, 5-chloro-2-(((4-(diphenylmethyl)piperacin-1-yl)carbonyl)amino)benzoic acid hydrochloride], the PAI-1 activity % was 4.7% under setting [1] and 86.4% under setting [2]. Consider `O=C(COC(c1ccccc1)c1ccccc1)Nc1ccc(Cl)cc1C(=O)O` [Example 76, 5-chloro-2-(((diphenylmethoxy)acetyl)amino)benzoic acid], for which, under setting [1], the PAI-1 activity % turned out to be 30.5%. With `O=C(CN1CCN(C(c2ccccc2)c2ccccc2)CC1)Nc1ccc(Cl)cc1C(=O)O` [Example 77, 5-chloro-2-(((4-(diphenylmethyl)piperazin-1-yl)acetyl)amino)benzoic acid], the PAI-1 activity % under setting [2] came out at 69.6%. Regarding `O=C(Nc1ccc(Cl)cc1C(=O)O)c1cccc(C2=CCCCC2)c1` [Example 79, 5-chloro-2-(((3-(cyclohex-1-en-1yl-)phenyl)carbonyl)amino)benzoic acid], the PAI-1 activity % by setting is: under setting [1], 1.6%; under setting [2], 44.5%. The matching figures for `O=C(Nc1ccc(C2=CCCCC2)cc1C(=O)O)c1ccc(C2CCCCC2)cc1` [Example 81, 5-(cyclohex-1-en-1-yl)-2-(((4-cylcohexylphenyl)carbonyl)amino)benzoic acid]: 0.0% and 1.0%. The matching figures for `Cc1ccc(C23CC4CC(CC(C(=O)Nc5ccc(Cl)cc5C(=O)O)(C4)C2)C3)cc1` [Example 86]: 1.4% and 63.5%. On the same counts, the results for `O=C(/C=C(/Cl)C1CCCCC1)Nc1ccc(Cl)cc1C(=O)O` [Example 91, 5-chloro-2-(((2E)-3-chloro-3-cyclohexlprop-2-encyl)amino)benzoic acid] are 16.7% and 96.9%.

On to `O=C(Nc1ccc(CCC2CCCCC2)cc1C(=O)O)c1ccc(C2CCCCC2)cc1` [Example 93, 5-(2-cyclohexylethyl)2-(((4-cyclohexylphenyl)carbonyl)amino)beznoic acid], for which the PAI-1 activity % is reported as 0.0% under setting [1] and 0.0% under setting [2]. As to `O=C(C=Cc1ccc(C23CC4CC(CC(C4)C2)C3)cc1)Nc1ccc(Cl)cc1C(=O)O` [Example 94, 2-((3-(4-(adamantan-1-yl)phenyl)prop-2-enoyl)amino)-5-chlorobenzoic acid], the PAI-1 activity % reads like this: under setting [1], 7.4%; under setting [2], 3.5%. On the same counts, the results for `C#Cc1ccc(NC(=O)c2ccc(C3CCCCC3)cc2)c(C(=O)O)c1` [Example 95, 2-(((4-cyclohexylphenyl)carbonyl)amino)-5-ethynlbenzoic acid] are 0.3% and 80.5%.
